Common to all, as to assay type: physicochemical
The nature of data set [1]: Absorbance of compound in methanol under light irradiation (Test Examples 1, 2, 7, 8). As to conditions: methanol solution; for molar absorption coefficient ε313: 313 nm; for molar absorption coefficient ε365: 365 nm. The procedure:
The above-obtained compound (1)-1 was dissolved in methanol so as to have a concentration of 2.5×10^−5 mol/L. Then, using an LED lamp, the illuminance was set to 50 mW/cm^2, the exposure dose was set to 0, 50, 150 or 300 mJ/cm^2, and the obtained methanol solution was irradiated with light having a wavelength of 365 nm. Then, the absorbance of the compound (1)-1 was measured.
The above-obtained compound (1)-1 was dissolved in methanol so as to have a concentration of 2.5×10^−5 mol/L. Then, using a mercury xenon lamp, the illuminance was set to 50 mW/cm^2, the exposure dose was set to 0, 50, 100 or 280 mJ/cm^2, and the obtained methanol solution was irradiated with light having a wavelength of 313 nm. Then, the absorbance of the compound (1)-1 was measured.
The above-obtained compound (1)-3 was dissolved in methanol so as to have a concentration of 1.5×10^−5 mol/L. Then, using an LED lamp, the illuminance was set to 50 mW/cm^2, the exposure dose was set to 0, 50, 100, 200 or 350 mJ/cm^2, and the obtained methanol solution was irradiated with light having a wavelength of 365 nm. Then, the absorbance of the compound (1)-3 was measured. In Test Example 7, the molar absorption coefficient was ε365=1.2×10^4 L/(mol cm).
The above-obtained compound (1)-3 was dissolved in methanol so as to have a concentration of 1.5×10^−5 mol/L. Then, using a mercury xenon lamp, the illuminance was set to 10 mW/cm^2, the exposure dose was set to 0, 50, 100, 200 or 350 mJ/cm^2, and the obtained methanol solution was irradiated with light having a wavelength of 313 nm. Then, the absorbance of the compound (1)-3 was measured. In Test Example 8, the molar absorption coefficient was ε313=2.8×10^4 L/(mol cm).

Data set [2] is described as follows: Preservation stability of liquid mixture with base-reactive compound (9)-301 (Test Examples 3, 4). The note with it: with (9)-301 in methanol, dark place, 25° C., 6 days. As for the experimental part:
A base-reactive compound (9)-301 (0.10 g) as shown below, the compound (1)-1 (0.012 g, 8 molar % with respect to the methoxy group in the base-reactive compound), and methanol (0.51 g) were added in a glass bottle to prepare a liquid mixture.
The liquid mixture was stored in a dark place at 25° C. for 6 days. After storage for 6 days, the glass bottle was shaken or inverted to confirm that the liquid mixture in the glass bottle was liquid.
The base-reactive compound (9)-301 (0.10 g), the compound (2)-1 (0.013 g, 8 molar % with respect to the methoxy group in the base-reactive compound), and methanol (0.50 g) were added in a glass bottle to prepare a liquid mixture.
The liquid mixture was stored in a dark place at 25° C. for 4 days. After storage for 4 days, the glass bottle was shaken or inverted to confirm that the liquid mixture in the glass bottle was gelled.

Data set [3] is described as follows: Color reaction experiment of phenol red (basicity, UV-Vis). The note with it: for peak showing basicity near 570 nm: methanol solution with phenol red, UV-Vis. The procedure:
Next, it was confirmed that 2-methyl-2-imidazoline (2MI), which is generated by light irradiation to the compound (1)-2, is a stronger base than cyclohexylamine (CyA), which is an aliphatic amine, by a color reaction experiment of phenol red. First, 2MI, CyA and diazabicycloundecene (DBU) were prepared as bases, and 1.5 mL of methanol solution, in which the concentration was prepared at 2.0×10^−5 mol/L, was added to 1.5 mL of a methanol solution in which each base was dissolved. The basicity of each base was evaluated by measuring the UV-Vis spectrum of each of the solution.

The nature of data set [4]: pH test paper after irradiation of aqueous solution. The note with it: 365 nm.
A further data set is described as follows: Solubility test. The note with it: chloroform, dimethyl sulfoxide and the like; compared with compound (1)-2.

Data on six compounds can be found in patent US11873354B2, “Photobase generator, compound, photoreactive composition, and reaction product” (Tokyo University of Science Foundation, priority 2019, dated 2024).

Each structure is given as a SMILES string. Entries after “also recorded” stand apart in the source; their conditions may differ.

As for `CN(C)C(=NC(=O)/C=C/c1ccccc1O)N(C)C` [Compound (1)-1], in data set [1], the “molar absorption coefficient ε313” value was determined as 16000 L/mol/cm and the “molar absorption coefficient ε365” value came out at 3100 L/mol/cm. Further, the “state of liquid mixture after storage” value in data set [2] was “liquid”. As for `C1CCC2=NCCCN2CC1` [DBU, diazabicycloundecene], the “peak showing basicity near 570 nm” value in data set [3] is on record as “a peak showing basicity appeared near 570 nm”. As to `CC1=NCCN1C(=O)/C=C/c1ccccc1O` [Compound (1)-2], in data set [4], the “pH test paper after light irradiation” value is “discolored to the basic side”. In the case of `CC1=NCCN1C(=O)/C=C/c1cc(C(C)(C)C)cc(C(C)(C)C)c1O` [Compound (1)-3], in data set [1], the “molar absorption coefficient ε313” value was determined as 28000 L/mol/cm and the “molar absorption coefficient ε365” value is 12000 L/mol/cm. Further, the solubility result in “Solubility test” is listed as “improved in solubility”. Turning to `NC1CCCCC1` [CyA, cyclohexylamine], the “peak showing basicity near 570 nm” value in data set [3] is “no peak showing basicity appeared near 570 nm”. On to `CC1=NCCN1` [Compound 2MI, 2-methyl-2-imidazoline], for which the relative basicity result in data set [3] (from peak intensity near 570 nm) is “weaker than that of DBU; also recorded: stronger than that of CyA”. Further, the “peak showing basicity near 570 nm” value in data set [3] is recorded as “a peak showing basicity appeared near 570 nm”.
